Assay results reported in patent US20260226037A1, “MICROTUBULE TARGETING AGENTS” (ARIEL SCIENTIFIC INNOVATIONS LTD., priority 2022, published 2026).

Experiments:
[1] = tested on: colchicine binding site on tubulin protein; assay: EBI competition assay, RPMI-8226 cells; type: cell-based; conditions: RPMI-8226 living cells
RPMI-LR5 cells = assay: XTT cytotoxicity, RPMI-LR5; type: cell-based
Outline: (§1)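 Cytotoxicity against the tumour cell lines was determined by XTT assay.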

RPMI8226 myeloma cells = assay: Xenograft murine myeloma model, antitumor efficacy; type: in vivo, mice
Method: In vivo anti-cancer efficacy of the molecules was evaluated in a xenograft murine myeloma model. Male SCID mice (6-8 weeks old) were maintained in accordance with Institutional Animal Care Use Committee guidelines. Mice were housed in the Animal Research Facility of Ariel University and experiments were performed in accordance with approved protocols. […] Mice were sacrificed when mean tumor volume of vehicle treated group reached 1500 mm3, or mice appeared moribund to prevent unnecessary morbidity. Mean tumor volume represents the average of tumor volume in each treatment group during the experiment. The weight of the tumors was measured at the end of the experiment and expressed as mean tumor weight per group. Body weight is expressed as mean body mice weight per group. The individual relative tumor volume (RTV) was defined as Vx/V1, where Vx is the mean tumor volume in mm3 at a given time and V1 at the start of treatment. Relative tumor volume is determined by calculating RTV (%) (mean RTV of treated group)/(mean RTV of control group)). Relative tumor volume inhibition is determined by calculating RTVI (%) (1-RTV %)

MES-SA cells = assay: XTT cytotoxicity, MES-SA; type: cell-based; conditions: Homo sapiens, poorly differentiated uterine sarcoma, non-resistant
Outline: as §1

HUVEC cells = assay: HUVEC wound scratch-healing migration assay; type: cell-based, human
Text: During angiogenesis, endothelial cells proliferate and migrate chemotactically towards angiogenic signals secreted by tumor cells.

RPMI-DOX40 cells = assay: XTT cytotoxicity, RPMI-DOX40; type: cell-based
Outline: as §1

[2] = tested on: acute lymphoblastic leukemia cells; assay: XTT cytotoxicity, acute lymphoblastic leukemia cells; type: cell-based; conditions: lowest of the range
Method: (§2) The cytotoxic activity of the novel family was evaluated against various tumor cells, including myeloma cells, acute lymphoblastic leukemia cells, acute monocytic leukemia cells, chronic myelogenous leukemia cells, pancreatic cancer cells, breast cancer cells, uterine sarcoma cells, cervix adenocarcinoma cells, ovary cancer cells, melanoma cells, osteosarcoma cells, prostate cancer cells, lung cancer cells, neuroblastoma cells and colorectal adenocarcinoma cells by XTT assay.

[3] = tested on: colchicine binding site on tubulin protein; assay: EBI competition assay, HELA cells; type: cell-based
N6/ADR cells = assay: XTT cytotoxicity, N6/ADR; type: cell-based
[4] = tested on: metastatic breast adenocarcinoma cells; assay: XTT cytotoxicity, metastatic breast adenocarcinoma cells; type: cell-based; conditions: highest of the range
Method: as §2

NALM6 cells = assay: XTT cytotoxicity, NALM6; type: cell-based; conditions: Homo sapiens, NALM-6; NALM6, acute lymphoblastic leukemia, non-resistant; read-out: IC50

CCCCCOC(=O)c1[nH]c2c(c1C)C(=O)CC(c1ncco1)C2 (stereo not shown) [SMS077, pentyl 3-methyl-6-(oxazol-2-yl)-4-oxo-4,5,6,7-tetrahydro-1H-indole-2-carboxylate]
prevention of covalent binding of EBI to the colchicine binding site [1]: prevented the covalent binding of EBI to the colchicine binding site | IC50 (RPMI-LR5 cells; RPMI-LR5, multiple myeloma, melphalan resistant, read-out: IC50): 19 nM | IC50 ratio between resistant and non-resistant cells (RPMI-LR5 cells; RPMI-LR5 / RPMI 8226): 0.731 | sensitivity of resistant subline vs parental cells (RPMI-LR5 cells; RPMI-LR5 vs RPMI8226 (RPMI-S)): no difference in their sensitivity | decrease of tumor volume as compared to vehicle at the same day (RPMI8226 myeloma cells; day 8, intraperitoneally): 0% | decrease of tumor volume as compared to vehicle at the same day (RPMI8226 myeloma cells; day 11, intraperitoneally): 40% | decrease of tumor volume as compared to vehicle at the same day (RPMI8226 myeloma cells; day 25, intraperitoneally): 52% | growth inhibition rate (tumor weight at end of experiment) (RPMI8226 myeloma cells; intraperitoneally): 54% | IC50 (MES-SA cells): 128 nM | wound healing density (HUVEC migration) (HUVEC cells): decreased wound healing density in a dose and time dependent manner | IC50 (RPMI-DOX40 cells; RPMI-DOX40, multiple myeloma, P-gp overexpression, read-out: IC50): 25 nM | IC50 ratio between resistant and non-resistant cells (RPMI-DOX40 cells; RPMI-DOX40 / RPMI 8226): 0.962 | sensitivity of resistant subline vs parental cells (RPMI-DOX40 cells; RPMI-Dox40 vs RPMI8226 (RPMI-S)): no difference in their sensitivity | IC50 [2]: 10 nM | binding to the colchicine binding site [3]: bound to the colchicine binding site | IC50 ratio between resistant and non-resistant cells (N6/ADR cells; N6/ADR / NALM6): 0.895 | IC50 (N6/ADR cells; N6/ADR, acute lymphoblastic leukemia, P-gp overexpression, read-out: IC50): 17 nM | IC50 [4]: 426 nM | IC50 (NALM6 cells): 19 nM
